Assay results from patent US4973578A, “Synthetic peptides derived from the alpha-subunit of human lycoprotein hormones” (Mayo Foundation for Medical Education and Research, priority 1988, dated 1990).
Residues, ends and D or L forms follow the SMILES beside them.

Target: T1, TSH receptor on human thyroid membranes (Homo sapiens, UniProt P16473)
T1 construct: Thyroid tissue obtained at surgery from patients with Graves' disease was prepared as described by Takahashi et al; from tissue; host or cells: human thyroid tissue from Graves' disease patients, 2000xg membrane fraction
Assay: TSH radioreceptor assay: inhibition of 125I-bTSH binding to human thyroid membrane preparations
Settings: for IC50: read-out: bTSH ED50 (effective dose necessary to inhibit binding of 125I-bTSH by 50%)
Experimental: Thyroid tissue obtained at surgery from patients with Graves' disease was prepared as described by Takahashi et al., J. Clin. Endocrinol. Metab. 47:870 (1978), the disclosure of which is incorporated herein. Briefly, the tissue was dissected free of fibrous material, minced with scissors, and homogenized with Polytron homogenizer. The 2000×g fraction was collected by centrifugation, washed and resuspended in 40 mM Tris, 0.1% Bovine Serum Albumin (BSA) pH 7.4 at a concentration of 100 mg equivalents of wet tissue per milliliter. The preparation was stored at -70° C. until used for assay.
Highly purified bovine TSH (30 IU/mg, supplied by Dr. J. G. Pierce, UCLA) was radio-iodinated (Na^125 I, Amersham, Chicago) by a gentle lactoperoxidase procedure described by Takahashi et al., supra, then purified by Sephadex G-100 chromatography.
The membrane assay incubation mixture consisted of […] of the 2000×g membrane fraction, 0.125 ng ^125 I bTSH (approximately 20,000 cpm, 5×10^-12 M), 100 ul of 1% Triton X-100 and noted amounts of test materials in a final volume of 0.5 ml of 40 mM Tris-HCl pH 7.4 plus 0.1% BSA. Nonspecific binding was determined by addition of excess unlabeled bTSH (200 mU/ml, Sigma, St. Louis). After 2 hrs incubation at 25° C., 200 ul of 5 mg/ml bovine gamma globulin and 1 ml 30% polyethylene glycol 6000 (Baker, Phillipsburg, N.J.) in 1M NaCl was added to each tube and the tubes centrifuged at 4000 rpm for 25 minutes. The supernatants were aspirated and pellets counted in a gamma counter. Specific binding averaged 25% of total counts.
FIG. 1 reports 5×10^-12 M labeled bTSH incubated with 10 mg equivalents (wet weight) of 2000×g fraction of thyroid membranes with varying concentrations of unlabeled TSH or synthetic α-subunit peptides. Nonspecific binding was determined in the presence of excess unlabeled TSH.

[1] = human thyroid membrane homogenates, ± S.E.

T1 sequence (P16473 21-764): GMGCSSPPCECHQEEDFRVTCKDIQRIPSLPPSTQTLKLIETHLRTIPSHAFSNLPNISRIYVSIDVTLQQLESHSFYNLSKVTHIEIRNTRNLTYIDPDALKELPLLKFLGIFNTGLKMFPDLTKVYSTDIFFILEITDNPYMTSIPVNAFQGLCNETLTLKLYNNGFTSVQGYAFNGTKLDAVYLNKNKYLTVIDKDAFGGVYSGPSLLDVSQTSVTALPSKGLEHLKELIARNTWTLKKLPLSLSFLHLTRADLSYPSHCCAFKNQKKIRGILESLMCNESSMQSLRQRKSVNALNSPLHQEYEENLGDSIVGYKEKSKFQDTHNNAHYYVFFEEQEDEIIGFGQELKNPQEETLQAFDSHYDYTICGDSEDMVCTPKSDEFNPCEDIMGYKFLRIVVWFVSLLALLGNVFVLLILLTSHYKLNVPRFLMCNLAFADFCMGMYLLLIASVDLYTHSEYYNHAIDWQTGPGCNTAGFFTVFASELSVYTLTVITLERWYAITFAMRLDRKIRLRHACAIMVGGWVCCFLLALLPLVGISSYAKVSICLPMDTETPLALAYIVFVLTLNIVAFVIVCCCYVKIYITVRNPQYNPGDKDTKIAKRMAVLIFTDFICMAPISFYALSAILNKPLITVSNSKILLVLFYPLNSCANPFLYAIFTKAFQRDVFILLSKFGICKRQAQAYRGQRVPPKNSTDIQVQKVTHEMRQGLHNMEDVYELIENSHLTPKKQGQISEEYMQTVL

Row | SMILES | IC50 [1] | displacement of 125I-bTSH label (at concentrations greater than 1×10^-5 m, FIG. 1) | bTSH ED50 (effective dose necessary to inhibit binding of 125I-bTSH by 50%) [1]
1 | CC(C)[C@H](NC(=O)[C@H](CS)NC(=O)[C@H](CS)NC(=O)[C@@H](NC(=O)[C@H](CO)NC(=O)[C@H](CCC(=O)O)NC(=O)[C@H](CO)NC(=O)[C@@H](NC(=O)[C@@H](NC(=O)[C@H](CC(N)=O)NC(=O)[C@@H](N)CCCCN)C(C)C)[C@@H](C)O)[C@@H](C)O)C(=O)N[C@@H](C)C(=O)N[C@@H](CCCCN)C(=O)N[C@@H](CO)C(=O)N[C@@H](Cc1ccc(O)cc1)C(N)=O [α51-65, Lys--Asn--Val--Thr--Ser--Glu--Ser--Thr--Cys--Cys--Val--Ala--Lys--Ser--Tyr] (H-KNVTSESTCCVAKSY-NH2) | 237 ± 9.5 µM | – | –
2 | CC(C)C[C@H](NC(=O)[C@@H]1CCCN1C(=O)[C@@H](NC(=O)[C@@H]1CCCN1C(=O)[C@H](Cc1ccc(O)cc1)NC(=O)[C@H](C)NC(=O)[C@H](CCCNC(=N)N)NC(=O)[C@H](CO)NC(=O)[C@H](Cc1ccccc1)NC(=O)[C@H](CS)NC(=O)[C@@H](N)CS)[C@@H](C)O)C(=O)N[C@@H](CCCNC(=N)N)C(=O)N[C@@H](CO)C(=O)N[C@@H](CCCCN)C(=O)N[C@@H](CCCCN)C(N)=O [α31-45, Cys--Cys--Phe--Ser--Arg--Ala--Tyr--Pro--Thr--Pro--Leu--Arg--Ser--Lys--Lys] (H-CCFSRAYPTPLRSKK-NH2) | 31.2 ± 3.8 µM | more than 80% | –
3 | CSCC[C@H](NC(=O)[C@@H](NC(=O)[C@@H](NC(=O)[C@@H](NC(=O)[C@H](CCCNC(=N)N)NC(=O)[C@H](CC(N)=O)NC(=O)[C@H](Cc1ccc(O)cc1)NC(=O)[C@H](CO)NC(=O)[C@H](CCCCN)NC(=O)[C@H](C)NC(=O)[C@@H](N)C(C)C)C(C)C)[C@@H](C)O)C(C)C)C(=O)NCC(=O)NCC(=O)N[C@@H](Cc1ccccc1)C(=O)N[C@@H](CCCCN)C(N)=O [α61-75, Val--Ala--Lys--Ser--Tyr--Asn--Arg--Val--Thr--Val--Met--Gly--Gly--Phe--Lys] (H-VAKSYNRVTVMGGFK-NH2) | > 700 µM | – | –
4 | CC(C)C[C@H](NC(=O)[C@@H](NC(=O)[C@H](CS)NC(=O)[C@H](CCC(=O)O)NC(=O)[C@@H]1CCCN1C(=O)[C@H](CS)NC(=O)[C@H](CC(=O)O)NC(=O)[C@H](CCC(N)=O)NC(=O)[C@@H](NC(=O)[C@H](CC(=O)O)NC(=O)[C@@H]1CCCN1C(=O)[C@H](C)N)C(C)C)[C@@H](C)O)C(=O)N[C@@H](CCC(N)=O)C(=O)N[C@@H](CCC(=O)O)C(=O)N[C@@H](CC(N)=O)C(N)=O [α1-15, Ala--Pro--Asp--Val--Gln--Asp--Cys--Pro--Glu--Cys--Thr--Leu--Gln--Glu--Asn] (H-APDVQDCPECTLQEN-NH2) | > 700 µM | – | –
5 | CSCC[C@H](N)C(=O)NCC(=O)NCC(=O)N[C@@H](Cc1ccccc1)C(=O)N[C@@H](CCCCN)C(=O)N[C@H](C(=O)N[C@@H](CCC(=O)O)C(=O)N[C@@H](CC(N)=O)C(=O)N[C@@H](Cc1c[nH]cn1)C(=O)N[C@H](C(=O)N[C@@H](C)C(=O)N[C@@H](CS)C(=O)N[C@@H](Cc1c[nH]cn1)C(=O)N[C@@H](CS)C(=O)N[C@@H](CO)C(N)=O)[C@@H](C)O)C(C)C [α71-85, Met--Gly--Gly--Phe--Lys--Val--Glu--Asn--His--Thr--Ala--Cys--His--Cys--Ser] (H-MGGFKVENHTACHCS-NH2) | > 700 µM | – | –
6 | CC[C@H](C)[C@H](NC(=O)[C@@H]1CCCN1C(=O)[C@H](C)NC(=O)CNC(=O)[C@@H]1CCCN1C(=O)[C@H](CCC(N)=O)NC(=O)[C@H](CO)NC(=O)[C@H](Cc1ccccc1)NC(=O)[C@H](Cc1ccccc1)NC(=O)[C@@H]1CCCN1C(=O)[C@H](CC(N)=O)NC(=O)[C@H](CCC(=O)O)NC(=O)[C@H](CCC(N)=O)NC(=O)[C@H](CC(C)C)NC(=O)[C@@H](N)[C@@H](C)O)C(N)=O [α11-25, Thr--Leu--Gln--Glu--Asn--Pro--Phe--Phe--Ser--Gln--Pro--Gly--Ala--Pro--Ile] (H-TLQENPFFSQPGAPI-NH2) | – | – | no activity
7 | CSCC[C@H](NC(=O)[C@@H](NC(=O)[C@H](CCCCN)NC(=O)[C@H](CCCCN)NC(=O)[C@H](CO)NC(=O)[C@H](CCCNC(=N)N)NC(=O)[C@@H](N)CC(C)C)[C@@H](C)O)C(=O)N[C@@H](CC(C)C)C(=O)N[C@H](C(=O)N[C@@H](CCC(N)=O)C(=O)N[C@@H](CCCCN)C(=O)N[C@@H](CC(N)=O)C(=O)N[C@H](C(=O)N[C@H](C(=O)N[C@@H](CO)C(N)=O)[C@@H](C)O)C(C)C)C(C)C [α41-55, Leu--Arg--Ser--Lys--Lys--Thr--Met--Leu--Val--Gln Lys--Asn--Val--Thr--Ser] (H-LRSKKTMLVQKNVTS-NH2) | 171 ± 28.3 µM | – | –
